{"source": "patent US7012096B2", "about": "“Composition for pain mediation and apparatus and method of use thereof” (Palladin Healthcare International, Inc., priority 1998, dated 2006)", "origin": "cited, not measured here", "key": {"human fibroblasts": {"tested_on": "human fibroblasts", "settings": "in vitro tissue culture"}, "human keratinocytes": {"tested_on": "human keratinocytes", "settings": "in vitro tissue culture"}}}
{"smiles": "CC(=O)O", "note": "[acetic acid]", "values": [{"measurement": "Concentration toxic to human fibroblasts", "setting": "human fibroblasts", "value": "above 0.025%"}, {"measurement": "Concentration toxic to human keratinocytes", "setting": "human keratinocytes", "value": "above 0.025%"}]}
